From patent US20220089609A1, “SUBSTITUTED QUINAZOLINONE DERIVATIVES AND THEIR USE AS POSITIVE ALLOSTERIC MODULATORS OF MGLUR4” (DOMAIN THERAPEUTICS, priority 2018, published 2022) come the findings set out here.

Counter-ions that a name gives are not always drawn. Bounds are passed on as bounds.

One assay deals with T1, human mGluR4 (hmGluR4) (Homo sapiens, UniProt Q14833).
T1 construct: expressed in transfected cells; host or cells: HEK-293 cells, transient co-transfection by electroporation
T1 sequence (Q14833 33-912): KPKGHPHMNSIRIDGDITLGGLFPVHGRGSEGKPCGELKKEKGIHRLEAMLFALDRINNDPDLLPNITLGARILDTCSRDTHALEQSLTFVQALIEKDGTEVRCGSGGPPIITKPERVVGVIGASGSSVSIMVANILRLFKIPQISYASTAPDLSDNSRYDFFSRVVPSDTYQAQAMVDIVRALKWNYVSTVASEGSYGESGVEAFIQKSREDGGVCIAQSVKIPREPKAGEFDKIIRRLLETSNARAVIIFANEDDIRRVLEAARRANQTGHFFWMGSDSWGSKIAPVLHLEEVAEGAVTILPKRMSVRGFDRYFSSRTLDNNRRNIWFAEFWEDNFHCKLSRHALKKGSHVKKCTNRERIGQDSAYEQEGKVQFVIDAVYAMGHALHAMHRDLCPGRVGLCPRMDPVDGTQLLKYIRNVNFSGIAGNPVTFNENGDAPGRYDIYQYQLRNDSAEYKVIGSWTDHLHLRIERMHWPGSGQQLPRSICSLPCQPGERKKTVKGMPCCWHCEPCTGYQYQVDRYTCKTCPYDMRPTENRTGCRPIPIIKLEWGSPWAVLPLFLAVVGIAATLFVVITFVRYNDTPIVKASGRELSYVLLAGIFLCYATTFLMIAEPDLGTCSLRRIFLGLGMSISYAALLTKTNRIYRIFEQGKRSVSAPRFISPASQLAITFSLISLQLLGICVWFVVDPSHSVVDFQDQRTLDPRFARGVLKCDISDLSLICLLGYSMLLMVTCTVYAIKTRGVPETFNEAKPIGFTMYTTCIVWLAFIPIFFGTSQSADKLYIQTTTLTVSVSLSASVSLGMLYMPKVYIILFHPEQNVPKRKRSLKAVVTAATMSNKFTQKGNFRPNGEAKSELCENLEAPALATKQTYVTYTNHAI
The assay is described as follows: Calcium assay EC50 determination, positive allosteric modulator activity on hmGluR4 transiently over-expressed in HEK-293 cells. The class given is cell-based. The settings on record: PAM mode with EC20 glutamate; hmGluR4 in HEK-293 cells; intracellular calcium (Fluo4AM); read-out: mGluR4 positive allosteric modulator activity, half maximal effective concentration (EC50). On the procedure: Compounds are tested successively for their agonist and positive allosteric modulator activities on human mGluR4 (hmGluR4) transiently over-expressed in HEK-293 cells. Compounds exert agonist activity if, by themselves in absence of glutamate, they are able to activate hmGluR4; and they exert positive allosteric modulator activity if they increase the action of glutamate.
HEK-293 cells are maintained in Modified Eagle's Medium supplemented with 10% Foetal Calf Serum, 1% Penicillin/Streptomycin and 1% non-essential amino acids at 37° C./5% CO2.
Cells are co-transfected by electroporation with four DNA plasmids encoding hmGluR4, a chimeric G protein allowing redirection of the activation signal to intracellular calcium pathway, and glutamate transporters to decrease extracellular glutamate concentration so as to limit receptor desensitization. After transfection, cells are cultured for 24 h at 37° C./5% CO2.
Calcium Assay EC50 determination
Receptor activity is detected by changes in intracellular calcium measured using the fluorescent Ca^2+ sensitive dye, Fluo4AM (Molecular Probes).
On the day of the assay, culture medium is aspirated and replaced during 3 hours by medium without serum supplemented with 1% Glutamax, 1% Penicillin/Streptomycin and 1% non-essential amino acids. Then, cells are washed with freshly prepared buffer B (HBSS 1× (PAA), Hepes 20 mM, MgSO4-7H2O 1 mM, Na2CO3 3.3 mM, CaCl2-2H2O 1.3 mM, 0.1% BSA, Probenecid 2.5 mM) and loaded at 37° C. in 5% CO2 for 1.5 hours with buffer B containing 1 μM Fluo4AM, 0.1 mg/mL Pluronic Acid, 7 μg/mL Glutamate Pyruvate Transaminase and 2 mM sodium pyruvate. Afterwards cells are washed twice with buffer B. Then cells are detached using StemPro Accutase (Fisher Scientific), resuspended in buffer B and seeded in 384 well plate at a density of 30,000 cells per well. Addition of compounds and intracellular Ca^2+ measurements (excitation 485 nm, emission 525 nm) are performed by the fluorescence microplate reader FLIP^Tetra (Molecular Devices).
Agonist and positive allosteric modulator activities of compounds are consecutively evaluated on the same cell plate. Agonist activity is first tested during 10 minutes with the addition of compound alone on the cells. Then, cells are stimulated by an EC20 glutamate concentration and fluorescence is recorded for additional 3 minutes. EC20 glutamate concentration is the concentration giving 20% of the maximal glutamate response. Agonist or positive allosteric modulator activity(ies) are evaluated in comparison to basal signals evoked by buffer B or EC20 glutamate alone, respectively.
Regarding `CCC(=O)N1CC[C@H](Oc2cc(C)c3nc(-c4cc5ccsc5cn4)[nH]c(=O)c3c2)C1` [Compound 82-S, S-8-Methyl-6-(1-propionyl-pyrrolidin-3-yloxy)-2-thieno[2,3-c]pyridin-5-yl-3H-quinazolin-4-one], the EC50 is at most 100 nM. Regarding `O=c1[nH]c(-c2cc(C(F)(F)F)ccn2)nc2ccc(OCCC3CCOCC3)cc12` [Compound 58, 6-[2-(Tetrahydro-pyran-4-yl)-ethoxy]-2-(4-trifluoromethyl-pyridin-2-yl)-3H-quinazolin-4-one], the EC50 lay within 100 to 1000 nM. Consider `Cc1cc(CCN2CCOCC2)cc2c(=O)[nH]c(-c3cc4cccn4cn3)nc12` [Compound 124, 8-Methyl-6-(2-morpholin-4-yl-ethyl)-2-pyrrolo[1,2-c]pyrimidin-3-yl-3H-quinazolin-4-one hydrochloride], for which the EC50 is at most 100 nM.

In the case of `COCC1CCN(Cc2cc(C)c3nc(-c4cc5sccc5cn4)[nH]c(=O)c3c2)CC1` [Compound 157, 6-((4-(Methoxymethyl)piperidin-1-yl)methyl)-8-methyl-2-(thieno[3,2-c]pyridin-6-yl)quinazolin-4(3H)-one hydrochloride], the EC50 lay in the range of 100 to 1000 nM. As for `Cc1cc(OCCCc2ccncc2)cc2c(=O)[nH]c(-c3cc(C(F)(F)F)ccn3)nc12` [Compound 101, 8-Methyl-6-(3-pyridin-4-yl-propoxy)-2-(4-trifluoromethyl-pyridin-2-yl)-3H-quinazolin-4-one hydrochloride], the EC50 fell in the range of 100 to 1000 nM. On the same count and under the same terms, under `CC(=O)N1CCCC(CCOc2cc(C)c3nc(-c4cc5ccsc5cn4)[nH]c(=O)c3c2)C1` (centres unmarked) [Compound 96, 6-[2-(1-Acetyl-piperidin-3-yl)-ethoxy]-8-methyl-2-thieno[2,3-c]pyridin-5-yl-3H-quinazolin-4-one] stands at most 100 nM; under `CCC(=O)N1CCN(c2ccc3nc(-c4cc(C(F)(F)F)ccn4)[nH]c(=O)c3c2)CC1` [Compound 54, 6-(4-Propionyl-piperazin-1-yl)-2-(4-trifluoromethyl-pyridin-2-yl)-3H-quinazolin-4-one], 1000 to 10000 nM. The same measure, in the same setting: next, `Cc1cc(CC(=O)N2CCOCC2)cc2c(=O)[nH]c(-c3cc4sccc4cn3)nc12` [Compound 126, 8-Methyl-6-(2-morpholino-2-oxoethyl)-2-(thieno[3,2-c]pyridin-6-yl)quinazolin-4(3H)-one]: at most 100 nM; `Cc1cc(OCC2CCOC2)cc2c(=O)[nH]c(-c3cc4cccn4cn3)nc12` (centres unmarked) [Compound 107, 8-methyl-2-pyrrolo[1,2-c]pyrimidin-3-yl-6-(tetrahydro-furan-3-ylmethoxy)-3H-quinazolin-4-one]: at most 100 nM. Turning to `Cc1cc(CN2CCOCC2)cc2c(=O)[nH]c(-c3cc(C(F)(F)F)ccn3)nc12` [Compound 115, 8-methyl-6-(morpholinomethyl)-2-[4-(trifluoromethyl)-2-pyridyl]-3H-quinazolin-4-one hydrochloride], the EC50 is at most 100 nM. Still for that read-out and setting: under `Cc1ccnc(-c2nc3ccc(OCCCc4ccncc4)cc3c(=O)[nH]2)c1` [Compound 11, 2-(4-methyl-2-pyridyl)-6-[3-(4-pyridyl)propoxy]-3H-quinazolin-4-one dihydrochloride] stands 100 to 1000 nM; under `CC(=O)N1CCN(CCOc2cc(C)c3nc(-c4cc5ccsc5cn4)[nH]c(=O)c3c2)CC1` [Compound 97, 6-[2-(4-acetyl-piperazin-1-yl)-ethoxy]-8-methyl-2-thieno[2,3-c]pyridin-5-yl-3H-quinazolin-4-one hydrochloride], 100 to 1000 nM. On the same count and under the same terms, under `CCC(=O)N1CC(Oc2cc(C)c3nc(-c4cc(C(F)(F)F)ccn4)[nH]c(=O)c3c2)C1` [Compound 103, 8-Methyl-6-(1-propionyl-azetidin-3-yloxy)-2-(4-trifluoromethyl-pyridin-2-yl)-3H-quinazolin-4-one] stands 100 to 1000 nM; under `CC(=O)N1CCC(c2ccc3nc(-c4cc5ccsc5cn4)[nH]c(=O)c3c2)CC1` [Compound 57, 6-(1-acetyl-piperidin-4-yl)-2-thieno[2,3-c]pyridin-5-yl-3H-quinazolin-4-one], 100 to 1000 nM; under `Cc1cc(CCCOc2ccc3nc(-c4cc5ccsc5cn4)[nH]c(=O)c3c2)ccn1` [Compound 63, 6-[3-(2-Methyl-pyridin-4-yl)-propoxy]-2-thieno[2,3-c]pyridin-5-yl-3H-quinazolin-4-one hydrochloride], 100 to 1000 nM. Same read-out and setting: under `CCC(=O)N1CCC(Oc2ccc3nc(-c4cc5sccc5cn4)[nH]c(=O)c3c2)CC1` [Compound 32, 6-(1-Propionyl-piperidin-4-yloxy)-2-thieno[3,2-c]pyridin-6-yl-3H-quinazolin-4-one] stands 100 to 1000 nM; under `Cc1cc(OCCC2COC2)cc2c(=O)[nH]c(-c3cc4ccsc4cn3)nc12` [Compound 77, 8-Methyl-6-(2-oxetan-3-yl-ethoxy)-2-thieno[2,3-c]pyridin-5-yl-3H-quinazolin-4-one], 100 to 1000 nM. Consider `Cc1cc(N2CC3(CCOC3)C2)cc2c(=O)[nH]c(-c3cc4ccsc4cn3)nc12` [Compound 90, 8-Methyl-6-(6-oxa-2-aza-spiro[3.4]oct-2-yl)-2-thieno[2,3-c]pyridin-5-yl-3H-quinazolin-4-one], for which the EC50 was at most 100 nM. `O=c1[nH]c(-c2cc(C3CC3)ccn2)nc2ccc(OCCCc3ccncc3)cc12` [Compound 19, 2-(4-cyclopropyl-2-pyridyl)-6-[3-(4-pyridyl)propoxy]-3H-quinazolin-4-one dihydrochioride]: the EC50 lay in the range of 100 to 1000 nM.

For `Cc1cc(OCCC2CCOC2)cc2c(=O)[nH]c(-c3cc4ccsc4cn3)nc12` (centres unmarked) [Compound 78, 8-Methyl-6-[2-(tetrahydro-furan-3-yl)-ethoxy]-2-thieno[2,3-c]pyridin-5-yl-3H-quinazolin-4-one], the EC50 is at most 100 nM. Take `Cc1cc(O[C@H](C)C2CCOCC2)cc2c(=O)[nH]c(-c3cc4ccsc4cn3)nc12` [Compound 110-R, R-8-Methyl-6-[1-(tetrahydro-pyran-4-yl)-ethoxy]-2-thieno[2,3-c]pyridin-5-yl-3H-quinazolin-4-one]: the EC50 is at most 100 nM. Still for that read-out and setting: next, `O=c1[nH]c(-c2cc3ccsc3cn2)nc2cc(C(F)(F)F)c(OCCCc3ccncc3)cc12` [Compound 70, 6-(3-Pyridin-4-yl-propoxy)-2-thieno[2,3-c]pyridin-5-yl-7-trifluoromethyl-3H-quinazolin-4-one hydrochloride]: 1000 to 10000 nM; `Cc1cc(OCCN2CCC3(CC2)COC3)cc2c(=O)[nH]c(-c3cc4ccsc4cn3)nc12` [Compound 84, 8-Methyl-6-[2-(2-oxa-7-aza-spiro[3.5]non-7-yl)-ethoxy]-2-thieno[2,3-c]pyridin-5-yl-3H-quinazolin-4-one]: 100 to 1000 nM.

Consider `Cc1cc(OCC2CCN(S(C)(=O)=O)CC2)cc2c(=O)[nH]c(-c3cc4ccsc4cn3)nc12` [Compound 88, 6-(1-Methanesulfonyl-piperidin-4-ylmethoxy)-8-methyl-2-thieno[2,3-c]pyridin-5-yl-3H-quinazolin-4-one], for which the EC50 is at most 100 nM. With `O=c1[nH]c(-c2cc3ccsc3cn2)nc2ccc(OCCCc3ccncc3)nc12` [Compound 66, 6-(3-Pyridin-4-yl-propoxy)-2-thieno[2,3-c]pyridin-5-yl-3H-pyrido[3,2-d]pyrimidin-4-one hydrochloride], the EC50 was 100 to 1000 nM.

`Cc1cc(C(=O)N2CCOCC2)cc2c(=O)[nH]c(-c3cc4cccn4cn3)nc12` [Compound 135, 8-Methyl-6-(morpholine-4-carbonyl)-2-pyrrolo[1,2-c]pyrimidin-3-yl-3H-quinazolin-4-one]: the EC50 was in the range of 100 to 1000 nM. The same measure, in the same setting: next, `O=c1[nH]c(-c2cc(Br)ccn2)nc2ccc(OCCCc3ccncc3)cc12` [Compound 18, 2-(4-bromo-2-pyridyl)-6-[3-(4-pyridyl)propoxy]-3H-quinazolin-4-one]: 100 to 1000 nM. Same read-out and setting: under `Cc1cc(OC[C@H]2CCOC2)cc2c(=O)[nH]c(-c3cc4ccsc4cn3)nc12` [Compound 80-S, S-8-Methyl-6-(tetrahydro-furan-3-ylmethoxy)-2-thieno[2,3-c]pyridin-5-yl-3H-quinazolin-4-one] stands at most 100 nM.

The assay is the same for the next values; noted with them: up to 100 μM.
`Cn1c(-c2cc3sccc3cn2)nc2ccc(OCCCc3ccncc3)cc2c1=O` [Compound 38, 3-Methyl-6-(3-pyridin-4-yl-propoxy)-2-thieno[3,2-c]pyridin-6-yl-quinazolin-4-one]: the “PAM activity on mGluR4” value is “no PAM activity”.
